Measured values from patent publication US20190160064A1, “METHODS FOR TREATING SKELETAL MUSCLE CACHEXIA ARISING FROM BURN INJURY BY ADMINISTERING PDE4B-SELECTIVE INHIBITORS” (University of Cincinnati, priority 2017, published 2019).

Key:
[1] = system: EDL muscle of burned WT rats; test: Pre-treatment of WT rats before burn injury, EDL muscle protein breakdown (Example 6); type: in vivo, rat; conditions: adult WT rats pre-treated daily for 7 days before 30% TBSA burn, 24 h after burn, vs. saline control WT rats
Procedure: Adult WT rats are pre-treated with either PDE4B-selective inhibitor (4-{[2-(5-Chloro-2-thienyl)-5-ethyl-6-methyl-4-pyrimidinyl]amino}phenyl)acetic acid (test group) or saline (control group). Rats are treated daily for 7 days prior to burn exposure. On day 8, rats are anaesthetized, shaved, and subjected to a third-degree burn on the back, affecting 30% of total body surface area (TBSA). Both test WT rats and control WT rats are then resuscitated. All rats are provided with rat chow equivalent to ˜10% of their body weight.
After 24 h, all rats are re-anesthetized and the gastrocnemius muscles are dissected and rapidly frozen in liquid nitrogen. To assess protein breakdown rates, the dissected extensor digitorum longus (EDL) muscles are tied by the tendons at resting length to stainless steel supports and preincubated in a shaking water bath for 30 min at 37° C. in individually stoppered 25 ml flasks containing oxygenated (95% 02-5% CO2) Krebs-Henseleit bicarbonate buffer (pH 7.4) with 10 mM glucose. Muscles are then transferred to fresh buffer containing 0.5 mM cycloheximide for 2 h incubation. The total (tyrosine) and myofibrillar (1-methyl-histidine, 1-Me-His) protein breakdown rates are determined by measuring the net production of tyrosine and 1-Me-His during 2 h incubation.

[2] = system: EDL muscle of burn-PDE4B KO rats; test: EDL muscle protein breakdown during 2 h in vitro incubation with EPAC/PKA inhibitors; type: cell-based, rat; conditions: EDL muscle of burn-PDE4B KO rats obtained 24 h after burn, 2 h in vitro incubation with inhibitor
Procedure: After 24 h, rats were re-anesthetized with pentobarbital (50 mg/kg), and the gastrocnemius muscles were dissected and rapidly frozen in liquid nitrogen. To assess protein breakdown rates, the dissected extensor digitorum longus (EDL) muscles were tied by the tendons at resting length to stainless steel supports and preincubated in a shaking water bath for 30 min at 37° C. in individually stoppered 25 ml flasks containing 3 ml oxygenated (95% 02-5% CO2) Krebs-Henseleit bicarbonate buffer (pH 7.4) with 10 mM glucose. Muscles were then transferred to fresh buffer containing 0.5 mM cycloheximide for 2 h incubation. The total (tyrosine) and myofibrillar (1-methyl-histidine, 1-Me-His) protein breakdown rates were determined by measuring the net production of tyrosine and 1-Me-His during 2 h incubation, according to previously published HPLC procedures (Balasubramaniam, A., et al., Torbafylline (HWA 448) inhibits skeletal muscle proteolysis in burned rats, J. Burn Care & Res. 30: S151 (2009)). The protein breakdown studies with PDE4B KO-rats were repeated with eight each of sham and burn rats to corroborate our initial findings. Additional in vivo experiments were performed to obtain tissues for biochemical studies and to study the effects of inhibitors of PKA (H89) and EPAC (ESI-09) on EDL protein breakdown in PDE4B KO-rats.
To elucidate the factor(s) imparting resistance to burn-induced skeletal muscle proteolysis in PDE4B-KO rats, EDL muscles of burn-PDE4B KO rats were incubated in the presence of inhibitors for cAMP downstream elements, PKA (H89) and EPAC (ESI-09).

[3] = system: burn-induced skeletal muscle proteolysis; conditions: rat, burn injury; cited from earlier work
mouse myotubes, C2C12 = conditions: C2C12 myotubes treated with TNFα+IFNγ; cited from earlier work
PDE4D in lung tissue = conditions: murine model of asthma; cited from earlier work

In the case of `CCc1c(C)nc(-c2ccc(Cl)s2)nc1Nc1ccc(CC(=O)O)cc1` [Compound 33, (4-{[2-(5-Chloro-2-thienyl)-5-ethyl-6-methyl-4-pyrimidinyl]amino}phenyl) acetic acid], the “1-Me-His release from the EDL muscle (myofibrillar protein breakdown)” value [1] is reported as “significantly decreases” and the “Tyr release from the EDL muscle (total protein breakdown)” value [1] is reported as “significantly decreases”.
In the case of `O=S(=O)(NCCNC/C=C/c1ccc(Br)cc1)c1cccc2cnccc12` [Compound H89], the “burn-induced EDL muscle myofibrillar protein breakdown (1-Me-His)” value [2] is reported as “did not exhibit any effect” and the “burn-induced EDL muscle total protein breakdown (Tyr)” value [2] is reported as “did not exhibit any effect”.
For `CC(C)(C)c1cc(C(=O)/C(C#N)=N/Nc2cccc(Cl)c2)no1` [ESI-09], the “burn-induced EDL muscle myofibrillar protein breakdown (1-Me-His)” value [2] was “to the same extent as in the EDL muscle of burn-WT rats” and the “burn-induced EDL muscle total protein breakdown (Tyr)” value [2] was “to the same extent as in the EDL muscle of burn-WT rats”.
In the case of `CCOCn1cnc2c1c(=O)n(CCCCC(C)(C)O)c(=O)n2C` [torbafylline], the EPAC/PI3K/Akt pathway [3] is listed as “activating”, the “burn-induced skeletal muscle proteolysis” value [3] is listed as “significantly attenuated” and the “skeletal muscle PDE4 activity” value [3] is listed as “normalizing”. The “skeletal muscle cAMP concentrations” value [3] was “normalizing”, the PDE4B expression (mouse myotubes, C2C12) was “normalized” and the “proteolysis (protein breakdown)” value (mouse myotubes, C2C12) was “normalized”.
For ciclamilast, the “PDE4D activity in lung tissue” value (PDE4D in lung tissue) is listed as “normalized” and the “PDE4D mRNA expression in lung tissue” value (PDE4D in lung tissue) is listed as “normalized”.
